Measurements as given in ChEMBL document CHEMBL1255345, “Efficacies of ceftobiprole medocaril and comparators in a rabbit model of osteomyelitis due to methicillin-resistant Staphylococcus aureus” (Antimicrob Agents Chemother, 2008).
≈ marks a conversion by molar mass, not a printed value. Calls of active or inactive are those of the source. No cut-off for these calls is given here.

How the values were obtained:
Staphylococcus aureus [1] = experiment: Antimicrobial activity against Staphylococcus aureus 168-1 isolated from osteomyelitis patient by broth macrodilution method; format: functional
Oryctolagus cuniculus [2] = experiment: Toxicity in methicillin-resistant Staphylococcus aureus-infected New Zealand rabbit osteomyelitis model assessed as body weight at 40 mg/kg, sc administered every 6 hrs for 4 days measured on week 4 postinfection (reference value: […] +/- […] kg); format: organism-based; conditions: in vivo
[3] = Drug level in tibial marrow of New Zealand rabbit at 40 mg/kg, sc administered every 6 hrs for 1 week measured after 3 hrs post last dose; conditions: read-out: Drug uptake
Oryctolagus cuniculus [4] = experiment: Toxicity in methicillin-resistant Staphylococcus aureus-infected New Zealand rabbit osteomyelitis model assessed as body weight at 40 mg/kg, sc administered every 6 hrs for 4 days measured on week 6 postinfection (reference value: […] +/- […] kg); format: organism-based; conditions: in vivo
[5] = Cmax in New Zealand rabbit at 20 mg/kg, sc administered every 6 hrs for 4 days measured after 1 hr post first dose by RP-HPLC/MS/MS; format: ADME, organism-based, Oryctolagus cuniculus; set-up: dose 20 mg/kg, route subcutaneous; conditions: in vivo
Staphylococcus aureus [6] = experiment: Antimicrobial activity against methicillin-resistant Staphylococcus aureus infected in New Zealand rabbit osteomyelitis model assessed as improvement in rate of bone reconstruction at 40 mg/kg, sc administered every 6 hrs for 4 weeks measured on week 6 postinfection by radiographic analysis; format: functional, organism-based; set-up: dose 40 mg/kg
Staphylococcus aureus [7] = experiment: Antimicrobial activity against methicillin-resistant Staphylococcus aureus infected in New Zealand rabbit osteomyelitis model assessed as improvement in rate of bone reconstruction at 40 mg/kg, sc administered every 6 hrs for 4 weeks measured on week 8 postinfection by radiographic analysis; format: functional, organism-based; set-up: dose 40 mg/kg
[8] = Cmax in New Zealand rabbit at 80 mg/kg, sc administered every 6 hrs for 4 days measured after 1 hr post first dose by RP-HPLC/MS/MS; format: ADME, organism-based, Oryctolagus cuniculus; set-up: dose 80 mg/kg, route subcutaneous; conditions: in vivo
Oryctolagus cuniculus [9] = experiment: Toxicity in methicillin-resistant Staphylococcus aureus-infected New Zealand rabbit osteomyelitis model assessed as body weight at 40 mg/kg, sc administered every 6 hrs for 4 days measured on week 8 postinfection (reference value: […] +/- […] kg); format: organism-based; conditions: in vivo
Staphylococcus aureus [10] = experiment: Antimicrobial activity against methicillin-resistant Staphylococcus aureus infected in New Zealand rabbit osteomyelitis model assessed as improvement in extent of bone remodeling at 40 mg/kg, sc administered every 6 hrs for 4 weeks measured on week 6 postinfection by radiographic analysis; format: functional, organism-based; set-up: dose 40 mg/kg
Staphylococcus aureus [11] = experiment: Antimicrobial activity against methicillin-resistant Staphylococcus aureus infected in New Zealand rabbit osteomyelitis model assessed as improvement in rate of bone reconstruction at 40 mg/kg, sc administered every 6 hrs for 4 weeks measured on week 2 posttreatment by radiographic analysis
Staphylococcus aureus [12] = experiment: Antimicrobial activity against methicillin-resistant Staphylococcus aureus infected in New Zealand rabbit osteomyelitis model assessed as improvement in extent of bone remodeling at 40 mg/kg, sc administered every 6 hrs for 4 weeks measured on week 8 postinfection by radiographic analysis; format: functional, organism-based; set-up: dose 40 mg/kg
Oryctolagus cuniculus [13] = experiment: Toxicity in methicillin-resistant Staphylococcus aureus-infected New Zealand rabbit osteomyelitis model assessed as body weight at 40 mg/kg, sc administered every 6 hrs for 4 days measured on week 2 postinfection (reference value: […] +/- […] kg); format: organism-based; conditions: in vivo
Staphylococcus aureus [14] = experiment: Antimicrobial activity against methicillin-resistant Staphylococcus aureus infected in New Zealand rabbit osteomyelitis model assessed as improvement in extent of bone remodeling at 40 mg/kg, sc administered every 6 hrs for 4 weeks measured on week 2 posttreatment by radiographic analysis
[15] = Cmin in New Zealand rabbit at 20 mg/kg, sc administered every 6 hrs for 4 days measured after 1 hr post first dose by RP-HPLC/MS/MS; format: ADME, organism-based, Oryctolagus cuniculus; set-up: dose 20 mg/kg, route subcutaneous; conditions: New Zealand, in vivo, read-out: Cmin
[16] = AUC in New Zealand rabbit at 80 mg/kg, sc administered every 6 hrs for 4 days measured after 1 hr post first dose by RP-HPLC/MS/MS; format: ADME, organism-based, Oryctolagus cuniculus; set-up: time < 1 hr, dose 80 mg/kg, route subcutaneous; conditions: plasma
[17] = Cmax in New Zealand rabbit at 80 mg/kg, sc administered every 6 hrs for 4 days measured 16th dose by RP-HPLC/MS/MS; format: ADME, organism-based, Oryctolagus cuniculus; set-up: dose 80 mg/kg, route subcutaneous; conditions: in vivo
[18] = AUC in New Zealand rabbit at 20 mg/kg, sc administered every 6 hrs for 4 days measured after 1 hr post first dose by RP-HPLC/MS/MS; format: ADME, organism-based, Oryctolagus cuniculus; set-up: time < 1 hr, dose 20 mg/kg, route subcutaneous; conditions: plasma
[19] = Drug level in tibial marrow of New Zealand rabbit osteomyelitis model at 40 mg/kg, sc administered every 6 hrs for 1 week measured after 3 hrs post last dose; conditions: read-out: Drug uptake
[20] = Plasma concentration in New Zealand rabbit osteomyelitis model at 40 mg/kg, sc administered every 6 hrs for 1 week measured after 3 hrs post last dose
[21] = Drug level in tibial matrix of New Zealand rabbit at 40 mg/kg, sc administered every 6 hrs for 1 week measured after 3 hrs post last dose; conditions: read-out: Drug uptake
[22] = Cmax in New Zealand rabbit osteomyelitis model at 40 mg/kg, sc administered every 6 hrs for 4 days; format: ADME, organism-based, Oryctolagus cuniculus; set-up: dose 40 mg/kg, route subcutaneous; conditions: in vivo
[23] = AUC in human at 500 mg, infusion up to 1 hr; conditions: plasma
[24] = Cmax in human at 500 mg, infusion up to 1 hr; conditions: in vivo
[25] = Drug level in tibial matrix of New Zealand rabbit osteomyelitis model at 40 mg/kg, sc administered every 6 hrs for 1 week measured after 3 hrs post last dose; conditions: read-out: Drug uptake
[26] = Cmax in New Zealand rabbit at 20 mg/kg, sc administered every 6 hrs for 4 days measured 16th dose by RP-HPLC/MS/MS; format: ADME, organism-based, Oryctolagus cuniculus; set-up: dose 20 mg/kg, route subcutaneous; conditions: in vivo

Which MBC (Staphylococcus aureus [1]) does the source give for `Nc1nc(/C(=N/O)C(=O)N[C@@H]2C(=O)N3C(C(=O)O)=C(/C=C4\CCN([C@@H]5CCNC5)C4=O)CS[C@H]23)ns1` [CEFTOBIPROLE] here?
The MBC was 6.25 µg/mL (≈ 11.7 µM).

What about the MIC (Staphylococcus aureus [1]) of the same compound?
The MIC was 0.39 µg/mL (≈ 0.73 µM).

What about the Activity (Oryctolagus cuniculus [2]) of the same compound?
Its Activity is 2.73 kg.

What about the concentration at 3 h [3] of the same compound?
Its concentration at 3 h is 2400 ng/g.

What about the Activity (Oryctolagus cuniculus [4]) of the same compound?
The Activity was 2.86 kg.

And the Cmax [5]?
The Cmax was 23800 ng/mL.

What about the Activity (Staphylococcus aureus [6]) of the same compound?
Its Activity is “Active”.

And the Activity (Staphylococcus aureus [7])?
The Activity was “Active”.

And the Cmax [8]?
The Cmax was 83300 ng/mL.

And the Activity (Oryctolagus cuniculus [9])?
The Activity was 3.07 kg.

And the Activity (Staphylococcus aureus [10])?
The Activity was “Active”.

What about the Activity (Staphylococcus aureus [11]) of the same compound?
Its Activity is “Active”.

And the Activity (Staphylococcus aureus [12])?
Its Activity is “Active”.

And the Activity (Oryctolagus cuniculus [13])?
The Activity was 2.64 kg.

And the Activity (Staphylococcus aureus [14])?
Its Activity is “Active”.

And the concentration at 1 h [15]?
The concentration at 1 h was 2700 ng/mL.

And the AUC at 1 h [16]?
The AUC at 1 h was 215 µg·h/mL.

And the Cmax [17]?
Its Cmax is 58900 ng/mL.

And the AUC at 1 h [18]?
The AUC at 1 h was 65.3 µg·h/mL.

What about the concentration at 3 h [19] of the same compound?
Its concentration at 3 h is 12800 ng/g.

And the concentration at 3 h [20]?
Its concentration at 3 h is 4900 ng/mL.

What about the concentration at 3 h [21] of the same compound?
The concentration at 3 h was 300 ng/g.

And the Cmax [22]?
The Cmax was 76800 ng/mL.

What about the AUC at 1 h [23] of the same compound?
The AUC at 1 h was 116 µg·h/mL.

What about the Cmax [24] of the same compound?
Its Cmax is 34200 ng/mL.

What about the concentration at 3 h [25] of the same compound?
Its concentration at 3 h is 900 ng/g.

And the Cmax [26]?
Its Cmax is 22100 ng/mL.
